These results are taken from patent publication US7265152B2 (ViroPharma Incorporated, priority 2002, dated 2007).

The structures appear in SMILES notation. Like-named read-outs stand apart in the source and are kept apart here. A value given as a limit tells only on which side of the number the result lay.

One assay deals with T1, HCV NS5B (Hepatitis C virus genotype 1b, UniProt Q9WMX2).
T1 construct: fusion protein, of which the carboxyl terminal 21 amino acids were removed to enhance its solubility; His tag (GSHHHHHH); made in house; host or cells: E. coli
In words: Inhibition of viral RNA-dependent RNA polymerase (RdRp), in vitro biochemical assay. Further details: species or system HCV genotype 1b virus (BB7). Particulars: read-out: HCV pol-BB7 IC50. An outline of the steps: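 IC50 values are the concentrations that halve in vitro RNA synthesis by HCV NS5B polymerase. The enzyme was a C-terminally truncated (Δ21), His-tagged genotype 1b (BB7 consensus) protein purified from E. coli.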

Assay [1] concerns HCV replicon (BB7 sequence) in Huh-7-Clone A cells. In words: HCV replicon assay: ELISA of NS5A protein in replicon-containing cells (Inhibition of Viral RNA Replication). In kind it is cell-based. Conditions: Hepatitis C virus. Put shortly:
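EC50 taken from an 8-point serially diluted dose curve, with NS5A level as read-out: fixed cells probed with primary monoclonal and HRP-conjugated secondary, TMB developed 30 min, OD 650 nm. Compound exposure 72 h in Huh-7-Clone A replicon cells (BB7 sequence).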
In general terms: A replicon is a self-replicating genome or part of one, used to study replication in cells.

The mark [2] stands for this setting: purified His-tagged NS5B (BB7), carboxyl terminal 21 amino acids removed.
Setting [3] is: Huh-7-Clone A, NS5A ELISA, 72-hour incubation, ranges of EC50, read-out: Replicon.
[4] abbreviates: HCV NS5B RdRp, BB7, activity class.
The mark [5] stands for this setting: HCV replicon assay, ranges of EC50, read-out: Replicon.
Where [6] appears, read: HCV NS5B RdRp, BB7, class symbols A-D.
Setting [7] is: HCV NS5B RdRp, BB7, reported as range class.
Setting [8] is: HCV replicon, range of EC50, read-out: Replicon.
Setting [9] is: HCV NS5B polymerase, BB7 (genotype 1b), values given as range classes A-D.
The mark [10] stands for this setting: HCV replicon assay, ranges of 50% effective concentration (EC50), read-out: Replicon.

By IC50 is commonly meant the concentration needed to halve the response being measured. For the molecule `CNC(=O)c1c(-c2ccc(F)cc2)oc2cc(NCCOC)c(OC(C)C)cc12` [Example 8, 2-(4-Fluoro-phenyl)-5-isopropoxy-6-(2-methoxy-ethylamino)-benzofuran-3-carboxylic acid methylamide], the IC50 at HCV NS5B (setting [2]) was at most 500 nM. In addition, in assay [1] (setting [3]), the EC50 is below 1 µM.

For `CNC(=O)c1c(-c2ccc(F)cc2)oc2cc(C3CCCN3C(=O)NC)c(OC)cc12` (stereo not drawn) [Example 377, 2-[2-(4-Fluoro-phenyl)-5-methoxy-3-methylcarbamoyl-benzofuran-6-yl]-pyrrolidine-1-carboxylic acid methylamide], the IC50 at HCV NS5B (setting [4]) was at most 500 nM. In addition, in assay [1] (setting [5]), the EC50 is below 10 µM.

Consider `CNC(=O)c1c(-c2ccc(F)cc2)oc2cc(-c3ncnn3C)c(OC)cc12` [Example 323, 2-(4-Fluoro-phenyl)-5-methoxy-6-(2-methyl-2H-[1,2,4]triazol-3-yl)-benzofuran-3-carboxylic acid methylamide], for which the half-maximal inhibitory concentration (IC50) at HCV NS5B (setting [6]) was at most 500 nM. Also, in assay [1] (setting [5]), the EC50 was below 1 µM.

Regarding `CCNc1cc2oc(-c3ccc(F)cc3)c(C(=O)NC)c2cc1O` [Example 364, 6-Ethylamino-2-(4-fluoro-phenyl)-5-hydroxy-benzofuran-3-carboxylic acid methylamide], the IC50 on HCV NS5B (setting [4]) fell in the range of 500 to 5000 nM. Besides, the EC50 in assay [1] (setting [5]) is above 30 µM.

Consider `CNC(=O)c1c(-c2ccc(F)cc2)oc2cc(C3CCCN3S(C)(=O)=O)c(OC(C)C)cc12` (stereo not drawn) [Example 275, 2-(4-Fluoro-phenyl)-5-isopropoxy-6-(1-methanesulfonyl-pyrrolidin-2-yl)-benzofuran-3-carboxylic acid methylamide], for which, at HCV NS5B (setting [6]), the half-inhibitory concentration (IC50) was at most 500 nM. The EC50 in assay [1] (setting [5]) was below 1 µM.

With `C=Cc1cc2oc(-c3ccc(F)cc3)c(C(=O)NC)c2cc1OC(C)C` [Example 157, 2-(4-Fluoro-phenyl)-5-isopropoxy-6-vinyl-benzofuran-3-carboxylic acid methylamide], on HCV NS5B (HCV NS5B RdRp, BB7 genotype 1b), the 50% inhibitory concentration (IC50) was at most 500 nM. Besides, in assay [1] (ranges of EC50 in HCV replicon assay, read-out: Replicon), the EC50 was below 10 µM.

Take `CNC(=O)c1c(-c2ccc(F)cc2)oc2ccc(OCc3cccc(C(=O)O)c3)cc12` [Example 260, 3-[2-(4-Fluoro-phenyl)-3-methylcarbamoyl-benzofuran-5-yloxymethyl]-benzoic acid]: the IC50 at HCV NS5B (setting [6]) was at most 500 nM. For the same molecule, in assay [1] (setting [5]), the EC50 was above 30 µM.

As to `CNC(=O)c1c(-c2ccc(F)cc2)oc2cc(N3CCOCC3)c(OC(F)F)cc12` [Example 172, 5-Difluoromethoxy-2-(4-fluoro-phenyl)-6-morpholin-4-yl-benzofuran-3-carboxylic acid methyalmide], the IC50 on HCV NS5B (setting [7]) is at most 500 nM. Moreover, the EC50 in assay [1] (setting [8]) was below 1 µM.

Regarding `CNC(=O)c1c(-c2ccc(F)cc2)oc2cc(N(Cc3c(C)noc3C)S(C)(=O)=O)c(OC(C)C)cc12` [Example 284, 6-[(3,5-Dimethyl-isoxazol-4-ylmethyl)-methanesulfonyl-amino]-2-(4-fluoro-phenyl)-5-isopropoxy-benzofuran-3-carboxylic acid methylamide], the half-inhibitory concentration (IC50) at HCV NS5B (setting [6]) was at most 500 nM. The EC50 in assay [1] (setting [5]) is below 10 µM.

For the molecule `CNC(=O)c1c(-c2ccc(F)cc2)oc2cc(N(Cc3cscn3)S(C)(=O)=O)c(OC)cc12` [Example 291, 2-(4-Fluoro-phenyl)-6-(methanesulfonyl-thiazol-4-ylmethyl-amino)-5-methoxy-benzofuran-3-carboxylic acid methylamide], the IC50 at HCV NS5B (setting [6]) is at most 500 nM. Moreover, in assay [1] (setting [5]), the EC50 was below 1 µM.

`CNC(=O)c1c(-c2ccc(F)cc2)oc2ccc(Cl)cc12` [Example 73, 5-Chloro-2-(4-fluoro-phenyl)-benzofuran-3-carboxylic acid methylamide]: on HCV NS5B (setting [2]), the 50% inhibitory concentration (IC50) lay within 500 to 5000 nM. Further, the EC50 in assay [1] (setting [3]) is below 10 µM.

In the case of `CCNc1cc2oc(-c3ccc(F)cc3)c(C(=O)NC)c2cc1OC(C)C` [Example 22, 6-Ethylamino-2-(4-fluoro-phenyl)-5-isopropoxy-benzofuran-3-carboxylic acid methylamide], the IC50 at HCV NS5B (setting [2]) was at most 500 nM. Further, in assay [1] (setting [3]), the EC50 is below 1 µM.

In the case of `CCC(C)(O)COc1cc2c(C(=O)NC)c(-c3ccc(F)cc3)oc2cc1N1CCOCC1` (stereo not drawn) [Example 251, 2-(4-Fluoro-phenyl)-5-(2-hydroxy-2-methyl-butoxy)-6-morpholin-4-yl-benzofuran-3-carboxylic acid methylamide], the IC50 at HCV NS5B (setting [6]) was 500 to 5000 nM. In assay [1] (setting [5]), the EC50 was below 10 µM.

For `CNC(=O)c1c(-c2ccc(F)cc2)oc2cc(N(C)S(C)(=O)=O)c(OCc3ccc(C(=O)O)c(O)c3)cc12` [Example 39, 4-[2-(4-Fluoro-phenyl)-6-(methanesulfonyl-methyl-amino)-3-methylcarbamoyl-benzofuran-5-yloxymethyl]-2-hydroxy-benzoic acid], the concentration for half-maximal inhibition (IC50) at HCV NS5B (setting [2]) is at most 500 nM. In assay [1] (setting [3]), the EC50 was below 10 µM.

As to `CNC(=O)c1c(-c2ccc(F)cc2)oc2cc(C)c(OC(C)C)cc12` [Example 79, 2-(4-Fluoro-phenyl)-5-isopropoxy-6-methyl-benzofuran-3-carboxylic acid methylamide], the half-maximal inhibitory concentration (IC50) on HCV NS5B (setting [2]) is at most 500 nM. In addition, the EC50 in assay [1] (setting [3]) is below 10 µM.

Take `CNC(=O)c1c(-c2ccc(F)cc2)oc2cc(-c3ncon3)c(OC(C)C)cc12` [Example 205, 2-(4-Fluoro-phenyl)-5-isopropoxy-6-[1,2,4]oxadiazol-3-yl-benzofuran-3-carboxylic acid methylamide]: at HCV NS5B (setting [7]), the IC50 is at most 500 nM. Also, the EC50 in assay [1] (setting [8]) was below 1 µM.

With `CNC(=O)c1c(-c2ccc(F)cc2)oc2cc(N(C)S(C)(=O)=O)c(Oc3nc(CCl)ns3)cc12` [Example 321, 5-(3-Chloromethyl-[1,2,4]thiadiazol-5-yloxy)-2-(4-fluoro-phenyl)-6-(methanesulfonyl-methyl-amino)-benzofuran-3-carboxylic acid methylamide], on HCV NS5B (setting [6]), the IC50 was at most 500 nM. For the same molecule, the EC50 in assay [1] (setting [5]) is below 1 µM.

Take `CNC(=O)c1c(-c2ccc(F)cc2)oc2cc(N3CCOCC3)c(OCc3nnc(-c4ccc(C)cc4)o3)cc12` [Example 207, 2-(4-Fluoro-phenyl)-6-morpholin-4-yl-5-(5-p-tolyl-[1,3,4]oxadiazol-2-ylmethoxy)-benzofuran-3-carboxylic acid methylamide]: the IC50 at HCV NS5B (setting [7]) is 5000 to 30000 nM. The EC50 in assay [1] (setting [8]) was below 10 µM.

As to `CNC(=O)c1c(-c2ccc(F)cc2)oc2cc(N3CCOCC3)c(OCc3csc(C)n3)cc12` [Example 201, 2-(4-Fluoro-phenyl)-5-(2-methyl-thiazol-4-ylmethoxy)-6-morpholin-4-yl-benzofuran-3-carboxylic acid methylamide], the concentration for half-maximal inhibition (IC50) at HCV NS5B (setting [7]) was at most 500 nM. Moreover, in assay [1] (setting [8]), the EC50 was below 1 µM.

For `CNC(=O)c1c(-c2ccc(F)cc2)oc2cc(NS(C)(=O)=O)ccc12` [Example 243, 2-(4-Fluoro-phenyl)-6-methanesulfonylamino-benzofuran-3-carboxylic acid methylamide], the IC50 at HCV NS5B (setting [7]) lay within 500 to 5000 nM. The EC50 in assay [1] (setting [8]) is below 10 µM.

Turning to `CNC(=O)c1c(-c2ccc(F)cc2)oc2cc(-c3cn[nH]c3C)c(OC(C)C)cc12` [Example 257, 2-(4-Fluoro-phenyl)-5-isopropoxy-6-(5-methyl-1H-pyrazol-4-yl)-benzofuran-3-carboxylic acid methylamide], the 50% inhibitory concentration (IC50) at HCV NS5B (setting [6]) was at most 500 nM. In addition, in assay [1] (setting [5]), the EC50 is below 1 µM.

Turning to `CNC(=O)c1c(-c2ccc(F)cc2)oc2cc(N(C)S(C)(=O)=O)c(OCc3cc(C)on3)cc12` [Example 396, 2-(4-Fluoro-phenyl)-6-(methanesulfonyl-methyl-amino)-5-(5-methyl-isoxazol-3-ylmethoxy)-benzofuran-3-carboxylic acid methylamide], the concentration for half-maximal inhibition (IC50) on HCV NS5B (setting [9]) was at most 500 nM. The EC50 in assay [1] (setting [10]) was below 1 µM.

Take `CNC(=O)c1c(-c2ccc(F)cc2)oc2ccc(OC)cc12` [Example 12, 2-(4-Fluoro-phenyl)-5-methoxy-benzofuran-3-carboxylic acid methylamide]: the concentration for half-maximal inhibition (IC50) on HCV NS5B (setting [2]) is at most 500 nM. The EC50 in assay [1] (setting [3]) was below 10 µM.

`CNC(=O)c1c(-c2ccc(F)cc2)oc2cc(NC)c(OC(C)C)cc12` [Example 19, 2-(4-Fluoro-phenyl)-5-isopropoxy-6-methylamino-benzofuran-3-carboxylic acid methylamide]: the IC50 on HCV NS5B (setting [2]) was at most 500 nM. Further, the EC50 in assay [1] (setting [3]) was below 1 µM.

With `CCc1cc2c(C(=O)NC)c(-c3ccc(F)cc3)oc2cc1N(Cc1cscn1)S(C)(=O)=O` [Example 343, 5-Ethyl-2-(4-fluoro-phenyl)-6-(methanesulfonyl-thiazol-4-ylmethyl-amino)-benzofuran-3-carboxylic acid methylamide], the IC50 on HCV NS5B (setting [4]) was at most 500 nM. The EC50 in assay [1] (setting [5]) was below 1 µM.

Take `CNC(=O)c1c(-c2ccc(F)cc2)oc2cc(N(C)S(C)(=O)=O)c(OCC(=O)OC(C)(C)C)cc12` [Example 382, [2-(4-Fluoro-phenyl)-6-(methanesulfonyl-methyl-amino)-3-methylcarbamoyl-benzofuran-5-yloxy]-acetic acid tert-butyl ester]: on HCV NS5B (setting [9]), the 50% inhibitory concentration (IC50) is at most 500 nM. For the same molecule, in assay [1] (setting [10]), the EC50 was below 1 µM.

For the molecule `CNC(=O)c1c(-c2ccc(F)cc2)oc2cc(N(C)S(C)(=O)=O)c(OCc3cccc(C(=O)OC)c3)cc12` [Example 306], the IC50 at HCV NS5B (setting [6]) was at most 500 nM. In addition, the EC50 in assay [1] (read-out: Replicon (μM)) is below 1 µM.
